Assay results reported in patent US20220251105A1, “METHODS OF TREATING A MK2-MEDIATED DISORDER” (Celgene CAR LLC, priority 2019, published 2022).

Legend:
[1] = system: TNF-α secretion by PBMCs; test: ex vivo studies of PBMCs from healthy volunteers; type: cell-based, human; conditions: at TE of 60%
[2] = system: Mouse/CD-1; test: exploratory single dose and 14-day repeat-dose toxicity study in mice; type: in vivo
Protocol: A single oral dose study with a 14-day repeat-dose phase was conducted in male and female mice. 250 mg/kg was selected as the highest dose for the repeat dose portion of the study.

[3] = exposure in 91-day mouse toxicology study; conditions: for AUC: mouse, plasma
[4] = system: cytokines and chemokines produced by ankylosing spondylitis patient cells (TNF-α, IL-17A, MCP-1, IL-6); test: ex vivo cytokine and chemokine production by ankylosing spondylitis patient cells; type: cell-based, human; conditions: ankylosing spondylitis patient cells in vitro
[5] = system: osteoclast differentiation; test: osteoclast differentiation in vitro; type: cell-based
[6] = in vivo; conditions: HLA-B27/Huβ2m transgenic, rat, plasma, po
Text: (§2) In each disease model, steady-state pharmacokinetics were characterized.

[7] = 28- and 91-day toxicology studies in cynomolgus monkeys; conditions: cynomolgus monkey, in vivo, oral
[8] = system: Mannan PsA in C57B1/6 mice; test: mannan-induced psoriatic arthritis model; type: in vivo, mouse
[9] = system: Imiquimod ear swelling in BALB/c mice; test: imiquimod-induced ear swelling model; type: in vivo, mouse
[10] = system: bone resorption activity; test: bone resorption activity in vitro; type: cell-based
[11] = system: mice; test: 91-day repeat-dose toxicology study with mice; type: in vivo, mouse; conditions: 750 mg/kg/day
[12] = 91-day repeat-dose toxicology study with mice; type: in vivo, mouse; conditions: mouse, in vivo, 91-day
[13] = single intravenous dose pharmacokinetics in CD-1 mice; type: in vivo, mouse; conditions: for Vd: read-out: Vdss
Protocol: (§1) In vitro and in vivo studies were conducted to characterize the absorption, PK, distribution, and metabolism of Compound 1. […] Additionally, plasma samples from single dose PK studies in mice and monkeys were evaluated for circulating metabolites.

[14] = single oral dose pharmacokinetics in CD-1 mice; type: in vivo, mouse
Protocol: as §1

[15] = system: healthy adult subjects; test: Phase 1 first in human study, safety and tolerability; type: in vivo
Protocol: The 2 sentinel subjects (chosen according to a randomization scheme) were dosed on Day 1. After at least 24 hours, the safety profile was acceptable to the Investigator (based on, at minimum, adverse events [AEs], concomitant medications and procedures, and any other important clinical observations), and the remainder of the cohort was dosed according to the randomization schedule.
The same total daily dose was then administered for the remainder of the planned treatment schedule (Days 2 to 14, inclusive).
Results. This study was a Phase 1, three-part study with a double-blind, placebo-controlled, single ascending dose (SAD) phase, a double-blind multiple ascending dose (MAD) phase, and an open-label cross-over food effect phase. The study enrolled a total of 97 healthy adult subjects.

[16] = single intravenous dose pharmacokinetics in cynomolgus monkeys; type: in vivo; conditions: cynomolgus monkey, plasma; for Vd: read-out: Vdss;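 for AUCLST: AUC to the last measurable time point (AUClast)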
Protocol: as §1

[17] = single oral dose pharmacokinetics in Sprague Dawley rats; type: in vivo; conditions: rat
Protocol: as §1

[18] = plasma exposure in HLA-B27/Huβ2m rats; conditions: HLA B27 Tg rat, 20 mg/kg
Text: as §2

[19] = steady-state plasma exposure in mouse disease models; type: in vivo; conditions: 3 mg/kg
[20] = CD-1, plasma, mouse, female, single IV 5 mg/kg
[21] = CD-1, plasma, mouse, male, single IV 5 mg/kg
[22] = CD-1, plasma, mouse, female, single oral 15 mg/kg
[23] = CD-1, plasma, mouse, female, single oral 100 mg/kg
[24] = CD-1, plasma, mouse, male, single oral 15 mg/kg
[25] = CD-1, plasma, mouse, male, single oral 100 mg/kg
[26] = cynomolgus, monkey, female, single IV 5 mg/kg
[27] = cynomolgus, monkey, male, single IV 5 mg/kg
[28] = Sprague Dawley, plasma, female, single oral 30 mg/kg
[29] = Sprague Dawley, plasma, male, single oral 30 mg/kg

Compound: CCOCc1cnc(Cl)nc1Oc1ccc2c(ccc3sc4c(c32)NC[C@@H](C)NC4=O)n1 [Compound 1]
- inhibition of TNF-α secretion [1]: approximately 70%
- Findings, 14-day phase ([2]; mice, 15, 75, 250 mg/kg/day): no compound related findings were identified
- Findings, single dose phase ([2]; mice, at 750 mg/kg): Cold to touch and shaking
- margin of human 150 mg exposure below the mouse NOAEL ([3]; mouse NOAEL AUCLST vs human 150 mg AUCLST): 21 fold
- AUC ([3]; 100 mg/kg/day): 28800 ng·h/mL
- AUC ([3]; 750 mg/kg/day): 144000 ng·h/mL
- production of cytokines and chemokines incl. TNF-α, IL-17A, MCP-1, IL-6 [4]: significantly inhibited
- osteoclast differentiation [5]: inhibit osteoclast differentiation in vitro
- AUC ([6]; 20 mg/kg): 2820 ng·h/mL
- AUC ([6]; 100 mg/kg): 7190 ng·h/mL
- NOAEL [7]: 375 mg/kg/day
- % Inhibition by PsASI ([8]; 3 mg/kg, from PsASI-score time curve): 36% by
- Minimally Efficacious Dose ([8]; endpoint PsASI score (ear thickness, skin flakiness, paw score combined)): 3 mg/kg
- % Inhibition by ear thickness clinical score ([9]; 3 mg/kg, from area under the ear thickness-time curve): 57% by ear
- Minimally Efficacious Dose ([9]; endpoint ear thickness): 3 mg/kg
- bone resorption activity [10]: reduce bone resorption activity in vitro
- finding on which the NOAEL was based [11]: microscopic findings in the heart
- NOAEL at 91 days [12]: 100 mg/kg/day
- AUC [13, 20]: 3400 ng·h/mL
- AUC(0-inf) [13, 20]: 3430 ng·h/mL
- clearance [13, 20]: 24.3 mL/min/kg
- Vd [13, 20]: 2.49 L/kg
- half-life ([13]; CD-1, plasma, mouse, female, single IV 5 mg/kg, read-out: t1/2,z (converted)): 396 min
- AUC [13, 21]: 4160 ng·h/mL
- AUC(0-inf) [13, 21]: 4350 ng·h/mL
- clearance [13, 21]: 19.2 mL/min/kg
- Vd [13, 21]: 5.08 L/kg
- half-life ([13]; CD-1, plasma, mouse, male, single IV 5 mg/kg, read-out: t1/2,z (converted)): 438 min
- half-life ([13]; both sexes, CD-1, mouse, plasma, iv, 5 mg/kg, mice, read-out: terminal half-life (converted)): ~420 min
- systemic clearance as % of liver blood flow ([13]; mice, IV): approximately 25 % of liver blood flow
- AUC [14, 22]: 5170 ng·h/mL
- AUC(0-inf) [14, 22]: 5250 ng·h/mL
- Cmax [14, 22]: 1980 ng/mL
- Tmax ([14]; CD-1, plasma, mouse, female, single oral 15 mg/kg, read-out: tmax): 30 min
- AUC [14, 23]: 28200 ng·h/mL
- AUC(0-inf) [14, 23]: 28400 ng·h/mL
- Cmax [14, 23]: 8080 ng/mL
- Tmax ([14]; CD-1, plasma, mouse, female, single oral 100 mg/kg, read-out: tmax): 15 min
- AUC [14, 24]: 2870 ng·h/mL
- AUC(0-inf) [14, 24]: 3040 ng·h/mL
- Cmax [14, 24]: 1270 ng/mL
- Tmax ([14]; CD-1, plasma, mouse, male, single oral 15 mg/kg, read-out: tmax): 15 min
- AUC [14, 25]: 19200 ng·h/mL
- AUC(0-inf) [14, 25]: 19200 ng·h/mL
- Cmax [14, 25]: 6600 ng/mL
- Tmax ([14]; CD-1, plasma, mouse, male, single oral 100 mg/kg, read-out: tmax): 30 min
- bioavailability ([14]; both sexes, CD-1, mouse, plasma, po, mice, doses in the range 15 to 375 mg/kg): 22 to 51%
- Tmax ([14]; both sexes, CD-1, mouse, plasma, mice, oral dosing, read-out: time to maximum plasma concentration (tmax)): 15 to 60 min
- F ([14]; mouse, female, single oral 15 mg/kg): 51%
- F ([14]; mouse, female, single oral 100 mg/kg): 41%
- F ([14]; mouse, male, single oral 15 mg/kg): 23%
- F ([14]; mouse, male, single oral 100 mg/kg): 22%
- most common TEAEs suspected related (skin and subcutaneous tissue disorder) ([15]; Part 1, 400-mg dose level, 2 TEAEs in 2 subjects): mild, transient, pruritic, erythematous rash without other organ involvement
- severe TEAEs or serious adverse events ([15]; Part 1, single doses 3 mg to 400 mg): no severe TEAEs or serious adverse events (SAEs)
- TEAEs suspected to be related to Compound 1 ([15]; Part 1, single doses 3 mg to 400 mg, of the 22 total TEAEs): 5
- ALT elevations, other 2 subjects ([15]; Part 2, 120 mg): less than 2 × above the upper limit of normal
- peak ALT elevation ([15]; Part 2, 120 mg, one subject, Day 17): 2.3 ×ULN
- TEAEs suspected to be related to Compound 1 ([15]; Part 2, 10 to 150 mg daily for 14 days, of the 42 total TEAEs): 9
- subjects with increase in serum transaminase levels (ALT) above ULN ([15]; Part 2, 120-mg dose cohort, of 6 subjects on active treatment): 3
- transaminase level changes ([15]; Part 2, 150-mg dose cohort, 14-day dosing period): no transaminase level changes were observed in any subject
- tolerability ([15]; single dose up to 400 mg, 14 days up to 150 mg): well tolerated
- half-life ([16]; both sexes, iv, 5 mg/kg, monkeys, read-out: terminal half-life): ≤ 60 min
- AUC [16, 26]: 2200 ng·h/mL
- AUC(0-inf) [16, 26]: 2210 ng·h/mL
- clearance [16, 26]: 38.3 mL/min/kg
- Vd [16, 26]: 1.93 L/kg
- half-life ([16]; cynomolgus, monkey, female, single IV 5 mg/kg, read-out: t1/2,z (converted)): 58.8 min
- AUC [16, 27]: 1920 ng·h/mL
- AUC(0-inf) [16, 27]: 1920 ng·h/mL
- clearance [16, 27]: 43.5 mL/min/kg
- Vd [16, 27]: 1.81 L/kg
- half-life ([16]; cynomolgus, monkey, male, single IV 5 mg/kg, read-out: t1/2,z (converted)): 57 min
- AUC [17, 28]: 5940 ng·h/mL
- AUC(0-inf) [17, 28]: 6610 ng·h/mL
- Cmax [17, 28]: 4960 ng/mL
- Tmax ([17]; Sprague Dawley, plasma, female, single oral 30 mg/kg, median, read-out: tmax): 30 min
- AUC [17, 29]: 1190 ng·h/mL
- AUC(0-inf) [17, 29]: 1290 ng·h/mL
- Cmax [17, 29]: 1180 ng/mL
- Tmax ([17]; Sprague Dawley, plasma, male, single oral 30 mg/kg, median, read-out: tmax): 15 min
- Tmax ([17]; both sexes, Sprague Dawley, plasma, 30 mg/kg, rats, oral dosing, read-out: time to maximum plasma concentration (tmax)): 15 to 60 min
- bioavailability ([17]; both sexes, Sprague Dawley, plasma, po, rats, doses in the range 15 to 375 mg/kg): 8 to 28%
- F ([17]; female, single oral 30 mg/kg): 28%
- F ([17]; male, single oral 30 mg/kg): 11%
- AUC [18]: 2820 ng·h/mL
- AUC ([19]; BALB/c, mouse, CAIA in BALB/c mice): 626 ng·h/mL
- AUC ([19]; BALB/c, mouse, imiquimod ear swelling in BALB/c mice): 917 ng·h/mL
- AUC ([19]; C57B1/6, mouse, mannan PsA in C57B1/6 mice): 467 ng·h/mL
